Assay results: ChEMBL document CHEMBL1629419, “1,3-Diphenyl-1H-pyrazole derivatives as a new series of potent PPARγ partial agonists” (Bioorg Med Chem, 2010)

Legend:
[1] = biological target: T1, Peroxisome proliferator-activated receptor gamma (Homo sapiens) (UniProt P37231); assay: Displacement of fluormone PPAR-green from N-terminal His-tagged human PPARgamma-LBD assessed as logarithm unit binding affinity value at 10 uM after 2 hrs by fluorescence polarization assay
T1 sequence (whole entry): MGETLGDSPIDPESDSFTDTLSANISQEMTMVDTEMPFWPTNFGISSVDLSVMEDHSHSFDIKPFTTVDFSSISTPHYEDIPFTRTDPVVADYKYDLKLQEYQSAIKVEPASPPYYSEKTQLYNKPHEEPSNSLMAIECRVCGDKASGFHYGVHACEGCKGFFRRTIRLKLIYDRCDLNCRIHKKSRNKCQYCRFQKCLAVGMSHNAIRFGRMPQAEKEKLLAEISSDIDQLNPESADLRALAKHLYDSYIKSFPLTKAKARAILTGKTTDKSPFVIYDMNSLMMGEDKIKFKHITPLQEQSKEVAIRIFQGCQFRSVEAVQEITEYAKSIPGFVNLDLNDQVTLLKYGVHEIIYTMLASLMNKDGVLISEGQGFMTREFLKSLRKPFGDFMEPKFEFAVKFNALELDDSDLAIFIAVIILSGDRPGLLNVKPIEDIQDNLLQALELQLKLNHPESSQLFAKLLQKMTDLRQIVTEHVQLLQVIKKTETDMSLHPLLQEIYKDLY

[2] = biological target: T2, Peroxisome proliferator-activated receptor gamma (Homo sapiens, UniProt P37231); assay: Displacement of fluormone PPAR-green from N-terminal His-tagged human PPARgamma-LBD after 2 hrs by fluorescence polarization assay
T2 sequence (P37231 whole entry): T1 sequence (whole entry)

[3] = biological target: T2, Peroxisome proliferator-activated receptor gamma; assay: Partial agonist activity at human PPARgamma-LBD expressed in HEK293T cells assessed as induction of receptor transactivation after 24 hrs by luciferase reporter gene assay; type: functional, cell-based, HEK-293T

binding affinity [1] | IC50 [2] [nM] | EC50 [3] [nM] | Compound
1.98 |  |  | O=C(COC(=O)c1cn(-c2ccccc2)nc1-c1ccccc1)c1ccc(Cl)c([N+](=O)[O-])c1
1.55 |  |  | O=C(Oc1ccccc1)c1cn(-c2ccccc2)nc1-c1ccc(F)cc1
1.82 |  |  | COc1cc(C=O)ccc1OC(=O)c1cn(-c2ccccc2)nc1-c1ccc(F)cc1
1.05 |  |  | COc1ccc(-c2nn(-c3ccccc3)cc2C(=O)OCC(=O)c2ccc(C)c([N+](=O)[O-])c2)cc1
1.37 |  |  | O=C(N/N=C/c1cn(-c2ccccc2)nc1-c1ccccc1)c1ccc([N+](=O)[O-])cc1
1.64 |  |  | COc1ccc(-c2nn(-c3ccccc3)cc2C(=O)Oc2ccccc2)cc1OC
1.15 |  |  | O=C(COC(=O)c1cn(-c2ccccc2)nc1-c1ccc(Cl)cc1)c1ccccc1
1.63 |  |  | O=C(Oc1ccccc1)c1cn(-c2ccccc2)nc1-c1ccccc1
1.45 |  |  | COc1ccc(-c2nn(-c3ccccc3)cc2C(=O)Oc2ccccc2)cc1
1.82 |  |  | COc1ccc(-c2nn(-c3ccccc3)cc2C(=O)Oc2ccc(C=O)cc2OC)cc1OC
1.15 |  |  | O=C(Oc1ccccc1)c1cn(-c2ccccc2)nc1-c1ccc(Cl)cc1
1.81 |  |  | COc1cc(C=O)ccc1OC(=O)c1cn(-c2ccccc2)nc1-c1ccc(Cl)cc1
1.73 |  |  | COc1cc(C=O)ccc1OC(=O)c1cn(-c2ccccc2)nc1-c1ccc(Br)cc1
1.38 |  |  | O=C(OCc1ccc([N+](=O)[O-])cc1)c1cn(-c2ccccc2)nc1-c1ccccc1
1.85 |  |  | COc1ccc(-c2nn(-c3ccccc3)cc2C(=O)Oc2ccc(C)cc2)cc1OC
1.38 |  |  | CC(=O)c1ccc(OC(=O)c2cn(-c3ccccc3)nc2-c2ccccc2)cc1
1.68 |  |  | O=C(N/N=C/c1cn(-c2ccccc2)nc1-c1ccc(F)cc1)C(O)c1ccccc1 (stereo not drawn)
1.63 |  |  | Fc1ccc(-c2nn(-c3ccccc3)cc2CNCc2ccccc2)cc1

binding affinity [1] | IC50 [2] [nM] | EC50 [3] [nM] | Compound
1.9 | 973 | 2290 | O=C(Oc1ccc([N+](=O)[O-])cc1)c1cn(-c2ccccc2)nc1-c1ccccc1
1.35 |  |  | COc1cc(C=O)ccc1OC(=O)c1cn(-c2ccccc2)nc1-c1ccc([N+](=O)[O-])cc1
1.37 |  |  | COc1ccc(-c2nn(-c3ccccc3)cc2C(=O)OCC(=O)c2ccccc2Cl)cc1
1.57 |  |  | COc1ccc(-c2nn(-c3ccccc3)cc2C(=O)OCC(=O)c2ccc([N+](=O)[O-])cc2)cc1
1.72 |  |  | CC(C)S(=O)(=O)c1ccc(COC(=O)c2cn(-c3ccccc3)nc2-c2ccccc2)cc1
1.22 |  |  | O=C(Oc1ccccc1)c1cn(-c2ccccc2)nc1-c1ccc(Br)cc1
1.36 |  |  | COc1cc(C=O)ccc1OC(=O)c1cn(-c2ccccc2)nc1-c1ccc(OC)c([N+](=O)[O-])c1
1.38 |  |  | O=C(Oc1ccccc1)c1cn(-c2ccccc2)nc1-c1cccc([N+](=O)[O-])c1
1.31 |  |  | Cc1ccc(-c2nn(-c3ccccc3)cc2C(=O)Oc2ccccc2)cc1
1.99 |  |  | COc1cc(C=O)ccc1OC(=O)c1cn(-c2ccccc2)nc1-c1ccccc1
1.2 |  |  | COc1ccc(-c2nn(-c3ccccc3)cc2C(=O)OCC(=O)c2ccc(Br)cc2)cc1
1.42 |  |  | COc1ccc(-c2nn(-c3ccccc3)cc2C(=O)OCC(=O)c2ccc(Cl)cc2)cc1
1.73 |  |  | S=C(NCc1ccco1)NCc1cn(-c2ccccc2)nc1-c1ccccc1
1.81 |  |  | COc1cc(C=O)ccc1OC(=O)c1cn(-c2ccccc2)nc1-c1ccc(C)cc1
1.52 |  |  | O=C(Oc1cccc2cccnc12)c1cn(-c2ccccc2)nc1-c1ccccc1
1.58 |  |  | CC(=O)Nc1ccc(OC(=O)c2cn(-c3ccccc3)nc2-c2ccccc2)cc1
1.5 |  |  | COc1cc(C=O)ccc1OC(=O)c1cn(-c2ccccc2)nc1-c1ccc(C2COCCO2)cc1 (stereo not drawn)
1.26 |  |  | Cc1ccc(-c2nn(-c3ccccc3)cc2C(=O)NCC(=O)c2ccccc2)cc1
